The values that follow come from patent US9629786B2, “Monoterpene derivatives of chalcone or dihydrochalcone and their use as depigmenting agents” (PIERRE FABRE DERMO-COSMETIQUE, priority 2011, dated 2017).

One series deals with fungal tyrosinase. The note with it: monophenoloxidase activity on fungal tyrosinase; cited from earlier work.
A further series relates to plasmodial. The note with it: cited from earlier work.
Another series concerns cancer cell line (lung). Conditions: cited from earlier work.
Series [1] has as its system murine melanoma cell line B16-F10. The experiment in a line: Inhibition of melanin synthesis, colorimetric assay on B16-F10. It counts as cell-based. Conditions: Mus musculus, B16-F10 cells. The source says: Pharmacological Testing: Inhibition of Melanin Synthesis:
We have developed a test for measuring melanin synthesis by using a colorimetric assay on the murine melanoma cell line B16-F10. This assay enables to test the depigmenting power of active ingredients.

Series [2] in a line: Stability of chalcone (cyclization to flavanone). It counts as physicochemical. The note with it: for stability (cyclization to flavanone): purified / pure form. The source says: More preferably, ? is a double bond, R1=H and R2=OH, that is to say the extract according to the invention is enriched with gymnochalcone. […] In fact, cyclization of chalcones to flavanone, upon addition of a hydroxyl group on 1,4-position in the carbonyl group by a Michael type reaction, which brings about instability of the chalcones, is not observed in this case.
Thus preferably gymnochalcone will be used in the form of an extract of Helichrysum gymnocephalum.

As to `O=C(/C=C/c1ccccc1)c1c(O)cc(O)cc1O` [2′,4′,6′-Trihydroxychalcone (II), 2′,4′,6′-Trihydroxychalcone], the IC50 (as a rule, the point on the concentration scale where inhibition reaches its midpoint) on fungal tyrosinase is 120 µM.
In the case of `COc1cc(O)c(C(=O)CCc2ccccc2)c(O)c1[C@H]1C=C(C)CC[C@@H]1C(C)C` [(−)-Methyl-linderatin], the anti-plasmodial activity result in the series on plasmodial is reported as “anti-plasmodial activity”.
`CC1=C[C@H](c2c(O)cc(O)c(C(=O)CCc3ccccc3)c2O)[C@H](C(C)C)CC1` [(−)-linderatin]: the cytotoxicity entry with cancer cell line (lung) is listed as “exhibited cytotoxicity”.
In series [1], `OC[C@H]1O[C@@H](Oc2ccc(O)cc2)[C@H](O)[C@@H](O)[C@@H]1O` [Arbutin, reference compound] had an IC50 of 158 µM.
For the compound `CC1=CC(c2c(O)cc(O)c(C(=O)/C=C/c3ccccc3)c2O)C(C(C)(C)O)CC1` (stereo not shown) [Gymnochalcone, gymnochalcone], the stability in time result in series [2] (in the extract of Helichrysum gymnocephalum) is “stable in time”. Besides, the “stability (cyclization to flavanone)” value in series [2] is given as “cyclization is observed”. Further, in series [1], the IC50 was determined as 17 µM.
`COc1ccc(O)cc1` [Hydroquinone monomethyl ether, reference compound] showed an IC50 in series [1] of 31 µM.
`O=c1cc(CO)occ1O` [Kojic acid, reference compound]: half-maximal inhibition in series [1] (IC50) was put at 2400 µM.
As to `CC1=CC(c2c(O)cc(O)c(C(=O)CCc3ccccc3)c2O)C(C(C)C)CC1` (stereo not shown) [Linderatin, linderatin], the “stability (cyclization to flavanone)” value in series [2] is given as “stable in such form”. The IC50 in series [1] stood at 5 µM.
The corresponding values for `COc1cc(O)c(C(=O)CCc2ccccc2)c(O)c1C1C=C(C)CCC1C(C)C` (stereo not shown) [Methyllinderatin, methyllinderatin] are “stable in such form” and 6 µM.
